Reference: PubChem BioAssay (NCI)
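Here, GI50 denotes the concentration required for 50% inhibition of growth. At the TGI there is no net growth.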

Assays:
Experiment in all cases: NCI anticancer screen, dose series, 384-well format
786-0 renal = tested on: 786-0 renal
A498 renal = tested on: A498 renal
A549 NSCLC = tested on: A549 NSCLC
ACHN renal = tested on: ACHN renal
BT-549 breast = tested on: BT-549 breast
CAKI-1 renal = tested on: CAKI-1 renal
CCRF-CEM leukemia = tested on: CCRF-CEM leukemia
DU-145 prostate = tested on: DU-145 prostate
EKVX NSCLC = tested on: EKVX NSCLC
HCT-116 colon = tested on: HCT-116 colon
HCT-15 colon = tested on: HCT-15 colon
HL-60(TB) leukemia = tested on: HL-60(TB) leukemia
HOP-62 NSCLC = tested on: HOP-62 NSCLC
HOP-92 NSCLC = tested on: HOP-92 NSCLC
HS 578T breast = tested on: HS 578T breast
HT29 colon = tested on: HT29 colon
IGROV1 ovarian = tested on: IGROV1 ovarian
K-562 leukemia = tested on: K-562 leukemia
KM12 colon = tested on: KM12 colon
LOX IMVI melanoma = tested on: LOX IMVI melanoma
M14 melanoma = tested on: M14 melanoma
MALME-3M melanoma = tested on: MALME-3M melanoma
MCF7 breast = tested on: MCF7 breast
MDA-MB-231 breast = tested on: MDA-MB-231 breast
MDA-MB-435 melanoma = tested on: MDA-MB-435 melanoma
MDA-MB-468 breast = tested on: MDA-MB-468 breast
MOLT-4 leukemia = tested on: MOLT-4 leukemia
NCI-H226 lung = tested on: NCI-H226 lung
NCI-H23 lung = tested on: NCI-H23 lung
NCI-H322M lung = tested on: NCI-H322M lung
NCI-H522 lung = tested on: NCI-H522 lung
NCI/ADR-RES ovarian = tested on: NCI/ADR-RES ovarian
OVCAR-3 ovarian = tested on: OVCAR-3 ovarian
OVCAR-4 ovarian = tested on: OVCAR-4 ovarian
OVCAR-5 ovarian = tested on: OVCAR-5 ovarian
OVCAR-8 ovarian = tested on: OVCAR-8 ovarian
PC-3 prostate = tested on: PC-3 prostate
RPMI-8226 leukemia = tested on: RPMI-8226 leukemia
RXF 393 renal = tested on: RXF 393 renal
SF-268 CNS = tested on: SF-268 CNS
SF-295 CNS = tested on: SF-295 CNS
SF-539 CNS = tested on: SF-539 CNS
SK-MEL-2 melanoma = tested on: SK-MEL-2 melanoma
SK-MEL-28 melanoma = tested on: SK-MEL-28 melanoma
SK-OV-3 ovarian = tested on: SK-OV-3 ovarian
SN12C renal = tested on: SN12C renal
SNB-19 CNS = tested on: SNB-19 CNS
SNB-75 CNS = tested on: SNB-75 CNS
SW-620 colon = tested on: SW-620 colon
T-47D breast = tested on: T-47D breast
TK-10 renal = tested on: TK-10 renal
U251 glioblastoma = tested on: U251 glioblastoma
UACC-257 melanoma = tested on: UACC-257 melanoma
UACC-62 melanoma = tested on: UACC-62 melanoma
UO-31 renal = tested on: UO-31 renal

**Q.** `C1CN1c1nc(N2CC2)nc(N2CC2)n1` was tested. Which GI50 ([…]-0 renal) did it give?
**A.** 2.59 µM

**Q.** What about the TGI (786-0 renal) of the same molecule?
**A.** 11.9 µM

**Q.** What about the GI50 (A498 renal) of the same molecule?
**A.** 3.36 µM

**Q.** What about the TGI (A498 renal) of the same molecule?
**A.** 18.6 µM

**Q.** And the GI50 (A549 NSCLC)?
**A.** 3.42 µM

**Q.** What about the TGI (A549 NSCLC) of the same molecule?
**A.** 19.5 µM

**Q.** And the GI50 (ACHN renal)?
**A.** 1.55 µM

**Q.** And the TGI (ACHN renal)?
**A.** 4.03 µM

**Q.** What about the GI50 (BT-549 breast) of the same molecule?
**A.** 2.16 µM

**Q.** What about the TGI (BT-549 breast) of the same molecule?
**A.** 11.5 µM

**Q.** And the GI50 (CAKI-1 renal)?
**A.** 1.46 µM

**Q.** What about the TGI (CAKI-1 renal) of the same molecule?
**A.** 14.2 µM

**Q.** And the GI50 (CCRF-CEM leukemia)?
**A.** 0.449 µM

**Q.** What about the TGI (CCRF-CEM leukemia) of the same molecule?
**A.** 1.35 µM

**Q.** What about the GI50 (DU-145 prostate) of the same molecule?
**A.** 1.04 µM

**Q.** And the TGI (DU-145 prostate)?
**A.** 5.94 µM

**Q.** And the GI50 (EKVX NSCLC)?
**A.** 15.5 µM

**Q.** And the TGI (EKVX NSCLC)?
**A.** 31 µM

**Q.** What about the GI50 (HCT-116 colon) of the same molecule?
**A.** 1.61 µM

**Q.** And the TGI (HCT-116 colon)?
**A.** 16.6 µM

**Q.** And the GI50 (HCT-15 colon)?
**A.** 2.34 µM

**Q.** What about the TGI (HCT-15 colon) of the same molecule?
**A.** 14.1 µM

**Q.** And the GI50 (HL-60(TB) leukemia)?
**A.** 0.144 µM

**Q.** And the TGI (HL-60(TB) leukemia)?
**A.** 0.3 µM

**Q.** What about the GI50 (HOP-62 NSCLC) of the same molecule?
**A.** 0.589 µM

**Q.** What about the TGI (HOP-62 NSCLC) of the same molecule?
**A.** 2.75 µM

**Q.** And the GI50 (HOP-92 NSCLC)?
**A.** 6.61 µM

**Q.** And the TGI (HOP-92 NSCLC)?
**A.** 58.6 µM

**Q.** And the GI50 (HS 578T breast)?
**A.** 11.6 µM

**Q.** And the TGI (HS 578T breast)?
**A.** 24 µM

**Q.** And the GI50 (HT29 colon)?
**A.** 2.75 µM

**Q.** What about the TGI (HT29 colon) of the same molecule?
**A.** 15.3 µM

**Q.** What about the GI50 (IGROV1 ovarian) of the same molecule?
**A.** 10.8 µM

**Q.** What about the TGI (IGROV1 ovarian) of the same molecule?
**A.** 22.9 µM

**Q.** What about the GI50 (K-562 leukemia) of the same molecule?
**A.** 3.96 µM

**Q.** And the TGI (K-562 leukemia)?
**A.** 17.4 µM

**Q.** What about the GI50 (KM12 colon) of the same molecule?
**A.** 2.47 µM

**Q.** What about the TGI (KM12 colon) of the same molecule?
**A.** 54.9 µM

**Q.** And the GI50 (LOX IMVI melanoma)?
**A.** 2.25 µM

**Q.** And the TGI (LOX IMVI melanoma)?
**A.** 14.8 µM

**Q.** And the GI50 (M14 melanoma)?
**A.** 1.74 µM

**Q.** What about the TGI (M14 melanoma) of the same molecule?
**A.** 10.5 µM

**Q.** What about the GI50 (MALME-3M melanoma) of the same molecule?
**A.** 4.87 µM

**Q.** And the TGI (MALME-3M melanoma)?
**A.** 18.6 µM

**Q.** What about the GI50 (MCF7 breast) of the same molecule?
**A.** 1.51 µM

**Q.** And the TGI (MCF7 breast)?
**A.** 18 µM

**Q.** What about the GI50 (MDA-MB-231 breast) of the same molecule?
**A.** 11.7 µM

**Q.** What about the TGI (MDA-MB-231 breast) of the same molecule?
**A.** 25.2 µM

**Q.** And the GI50 (MDA-MB-435 melanoma)?
**A.** 10.8 µM

**Q.** What about the TGI (MDA-MB-435 melanoma) of the same molecule?
**A.** 23.1 µM

**Q.** And the GI50 (MDA-MB-468 breast)?
**A.** 0.139 µM

**Q.** What about the TGI (MDA-MB-468 breast) of the same molecule?
**A.** 0.586 µM

**Q.** What about the GI50 (MOLT-4 leukemia) of the same molecule?
**A.** 0.0877 µM

**Q.** And the TGI (MOLT-4 leukemia)?
**A.** 0.21 µM

**Q.** And the GI50 (NCI-H226 lung)?
**A.** 4.42 µM

**Q.** And the TGI (NCI-H226 lung)?
**A.** 19.9 µM

**Q.** And the GI50 (NCI-H23 lung)?
**A.** 1.22 µM

**Q.** What about the TGI (NCI-H23 lung) of the same molecule?
**A.** 4.3 µM

**Q.** What about the GI50 (NCI-H322M lung) of the same molecule?
**A.** 13.3 µM

**Q.** And the TGI (NCI-H322M lung)?
**A.** 27.9 µM

**Q.** And the GI50 (NCI-H522 lung)?
**A.** 1.36 µM

**Q.** What about the TGI (NCI-H522 lung) of the same molecule?
**A.** 2.87 µM

**Q.** What about the GI50 (NCI/ADR-RES ovarian) of the same molecule?
**A.** 3.02 µM

**Q.** What about the TGI (NCI/ADR-RES ovarian) of the same molecule?
**A.** 15.1 µM

**Q.** What about the GI50 (OVCAR-3 ovarian) of the same molecule?
**A.** 3.13 µM

**Q.** And the TGI (OVCAR-3 ovarian)?
**A.** 14.5 µM

**Q.** What about the GI50 (OVCAR-4 ovarian) of the same molecule?
**A.** 14.7 µM

**Q.** What about the TGI (OVCAR-4 ovarian) of the same molecule?
**A.** 29 µM

**Q.** What about the GI50 (OVCAR-5 ovarian) of the same molecule?
**A.** 5.96 µM

**Q.** What about the TGI (OVCAR-5 ovarian) of the same molecule?
**A.** 22 µM

**Q.** And the GI50 (OVCAR-8 ovarian)?
**A.** 1.39 µM

**Q.** What about the TGI (OVCAR-8 ovarian) of the same molecule?
**A.** 15.9 µM

**Q.** What about the GI50 (PC-3 prostate) of the same molecule?
**A.** 10.7 µM

**Q.** What about the TGI (PC-3 prostate) of the same molecule?
**A.** 23.4 µM

**Q.** What about the GI50 (RPMI-8226 leukemia) of the same molecule?
**A.** 0.736 µM

**Q.** What about the TGI (RPMI-8226 leukemia) of the same molecule?
**A.** 3.11 µM

**Q.** And the GI50 (RXF 393 renal)?
**A.** 3.11 µM

**Q.** And the TGI (RXF 393 renal)?
**A.** 13.1 µM

**Q.** What about the GI50 (SF-268 CNS) of the same molecule?
**A.** 0.68 µM

**Q.** What about the TGI (SF-268 CNS) of the same molecule?
**A.** 10.2 µM

**Q.** And the GI50 (SF-295 CNS)?
**A.** 1.08 µM

**Q.** What about the TGI (SF-295 CNS) of the same molecule?
**A.** 2.84 µM

**Q.** What about the GI50 (SF-539 CNS) of the same molecule?
**A.** 1.46 µM

**Q.** And the TGI (SF-539 CNS)?
**A.** 4.3 µM

**Q.** What about the GI50 (SK-MEL-2 melanoma) of the same molecule?
**A.** 8.35 µM

**Q.** What about the TGI (SK-MEL-2 melanoma) of the same molecule?
**A.** 18.8 µM

**Q.** And the GI50 (SK-MEL-28 melanoma)?
**A.** 10.3 µM

**Q.** And the TGI (SK-MEL-28 melanoma)?
**A.** 22.1 µM

**Q.** What about the GI50 (SK-OV-3 ovarian) of the same molecule?
**A.** 2.76 µM

**Q.** What about the TGI (SK-OV-3 ovarian) of the same molecule?
**A.** 12.2 µM

**Q.** What about the GI50 (SN12C renal) of the same molecule?
**A.** 1.21 µM

**Q.** And the TGI (SN12C renal)?
**A.** 10.3 µM

**Q.** What about the GI50 (SNB-19 CNS) of the same molecule?
**A.** 3.73 µM

**Q.** And the TGI (SNB-19 CNS)?
**A.** 18.1 µM

**Q.** And the GI50 (SNB-75 CNS)?
**A.** 1.67 µM

**Q.** What about the TGI (SNB-75 CNS) of the same molecule?
**A.** 10.3 µM

**Q.** What about the GI50 (SW-620 colon) of the same molecule?
**A.** 2.84 µM

**Q.** What about the TGI (SW-620 colon) of the same molecule?
**A.** 20 µM

**Q.** What about the GI50 (T-47D breast) of the same molecule?
**A.** 5.49 µM

**Q.** What about the TGI (T-47D breast) of the same molecule?
**A.** 22.7 µM

**Q.** What about the GI50 (TK-10 renal) of the same molecule?
**A.** 14.3 µM

**Q.** And the TGI (TK-10 renal)?
**A.** 35 µM

**Q.** And the GI50 (U251 glioblastoma)?
**A.** 1.42 µM

**Q.** And the TGI (U251 glioblastoma)?
**A.** 13.3 µM

**Q.** What about the GI50 (UACC-257 melanoma) of the same molecule?
**A.** 12.5 µM

**Q.** What about the TGI (UACC-257 melanoma) of the same molecule?
**A.** 25.2 µM

**Q.** What about the GI50 (UACC-62 melanoma) of the same molecule?
**A.** 1.34 µM

**Q.** And the TGI (UACC-62 melanoma)?
**A.** 11.6 µM

**Q.** What about the GI50 (UO-31 renal) of the same molecule?
**A.** 5.17 µM

**Q.** And the TGI (UO-31 renal)?
**A.** 17.9 µM
